Measured values reported in PubChem BioAssay (NCI).
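These data come from cells grown in 96-well plates and exposed to compound for 48 hours at five concentrations. The concentration for 50% growth inhibition is given as GI50. At the TGI there is no net growth.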

Tests used:
Test in all cases: NCI tumour cell line growth inhibition, 48 h
M14 melanoma = system: M14 melanoma
DU-145 prostate = system: DU-145 prostate
MDA-MB-435 = system: MDA-MB-435
KM12 colon = system: KM12 colon
IGROV1 ovarian = system: IGROV1 ovarian
U251 CNS = system: U251 CNS
SNB-78 CNS = system: SNB-78 CNS
SF-268 CNS = system: SF-268 CNS
SNB-19 CNS = system: SNB-19 CNS
OVCAR-4 ovarian = system: OVCAR-4 ovarian
SW-620 colon = system: SW-620 colon
HCT-15 colon = system: HCT-15 colon
M19-MEL melanoma = system: M19-MEL melanoma
SN12K1 renal = system: SN12K1 renal
P388 leukemia = system: P388 leukemia
DMS 273 small cell lung = system: DMS 273 small cell lung
RXF 393 renal = system: RXF 393 renal

SMILES | GI50 (M14 melanoma) | TGI (M14 melanoma) | GI50 (DU-145 prostate) | TGI (DU-145 prostate) | GI50 (MDA-MB-435) | TGI (MDA-MB-435) | TGI (KM12 colon) | TGI (IGROV1 ovarian) | TGI (U251 CNS) | TGI (SNB-78 CNS) | TGI (SF-268 CNS) | TGI (SNB-19 CNS) | TGI (OVCAR-4 ovarian) | TGI (SW-620 colon) | TGI (HCT-15 colon) | TGI (M19-MEL melanoma) | TGI (SN12K1 renal) | TGI (P388 leukemia) | TGI (DMS 273 small cell lung) | TGI (RXF 393 renal)
COc1cc(/C=C2\CN(S(=O)(=O)c3ccc(C)cc3)C/C(=C\c3cc(CN4CCCCC4)c(O)c(OC)c3)C2=O)cc(CN2CCCCC2)c1O | 1.61 µM | 3.27 µM | 1.85 µM | 3.53 µM | 0.36 µM | 1.39 µM |  |  |  |  |  |  |  |  |  |  |  |  |  | 
NC(Cc1c[nH]c2ccccc12)C(=O)O (stereo not given) |  |  |  |  |  |  | > 300 µM | > 300 µM | > 300 µM | > 300 µM | > 300 µM | > 300 µM | > 300 µM | > 300 µM | > 191 µM | > 300 µM | > 300 µM | > 300 µM | > 300 µM | > 300 µM
